Bounds are passed on as bounds.

One data set has as its system Huh7. Description: Cytotoxicity on human cells, Huh7 (liver). Type of data set: cell-based. Particulars: Huh-7, human cells, exposed 24 h and 48 h, 0.1 to 25 μM. The method, then: (§1) […] Dosages on Human cells (Huh7, Caco, MDA-MB 231, HCT 116, PC3, NCl, Fibroblast)
(§2) Cytotoxicity: This method is based on an automated imaging analysis. 4.10^3 cells were cultivated on 96-well plates and thus left for 24 hours so that they may bind, be distributed and proliferate.
(§3) These cells were then exposed for 24 h and 48 h to increasing concentrations of the compounds of the invention, from 0.1 to 25 μM in a final volume of 80 μL of culture medium. The cells are then set with a 4% paraformaldehyde solution and the nuclei are colored with Hoechst 3342 and counted according to automated imaging quantification.
(§4) All the cell lines were cultivated in a DMEM or RPMI (Invitrogen) medium. All these media were completed with antibiotics (penicillin-streptomycin)(Lonza) and 10% by volume of foetal calf serum (Invitrogen). The cells were cultivated at 37° C. with 5% of CO2. The treatments with the molecules to be tested were carried out with increasing concentrations. […] The control experiments were also conducted by using suitable dilutions of DMSO (maximum 1% DMSO). Cell viability was determined by measuring the reduction of MTS as described in the article of Ribas J, Boix J. (2004). Cell differentiation caspase inhibition and macromolecular synthesis blockage but not BCL-2 or BCL-XL proteins protect SH-SY5Y cells from apoptosis triggered by two CDK inhibitory drugs. Exp. Cell Res., 295: 9-24.

A further data set concerns Caco. Description: Cytotoxicity on human cells, Caco (colon). Type of data set: cell-based. Particulars: exposed 24 h and 48 h, 0.1 to 25 μM. The method, then: as §1, §2, §3, §4
For the next data set, the system named is MDA-MB 231. Briefly: Cytotoxicity on human cells, MDA-MB 231 (breast). Type of data set: cell-based. The settings on record: MDA-MB-231, human cells, exposed 24 h and 48 h, 0.1 to 25 μM. The method, then: as §1, §2, §3, §4
The subject of a further data set is HCT 116. Briefly: Cytotoxicity on human cells, HCT 116 (colon). Type of data set: cell-based. Particulars: exposed 24 h and 48 h, 0.1 to 25 μM. The method, then:
as §1, §2, §3, §4

The next data set has as its system PC3. Description: Cytotoxicity on human cells, PC3 (prostate). Type of data set: cell-based. Particulars: PC-3, human cells, exposed 24 h and 48 h, 0.1 to 25 μM. The method, then:
as §1, §2, §3, §4

In the next data set the test system is NCI. Description: Cytotoxicity on human cells, NCI (lung). Particulars: exposed 24 h and 48 h, 0.1 to 25 μM. Type of data set: cell-based. The method, then:
as §1, §2, §3, §4

The next data set deals with fibroblast. Description: Cytotoxicity on human cells, fibroblast. Type of data set: cell-based. The settings on record: exposed 24 h and 48 h, 0.1 to 25 μM. The method, then: as §1, §2, §3, §4
Another data set concerns the target DYRK1A (Homo sapiens, UniProt Q13627). Description: DYRK1A kinase inhibition (Woodtide substrate, buffer A). Type of data set: biochemical. Particulars: 15 μM ATP, 30° C., recombinant GST fusion; read-out: IC50 Kinases DYRK1A. The method, then: The activities for inhibiting protein kinases of the compounds of the invention are tested according to the following general procedure:
Buffer A: 10 mM MgCl2, 1 mM EGTA, 1 mM DTT, 25 mM Tris-HCl pH 7.5 and 50 μg heparin/mL.
The kinase activities are dosed in buffers A or C, at 30° C., at a final concentration of ATP of 15 μM. The values of the blanks were subtracted and the activities are expressed as a % of the maximum activity, i.e. in the absence of inhibitors. The controls were carried out with suitable dilutions of DMSO.

As usually defined, the IC50 is the concentration that inhibits the measured activity by half. One may read the melting point as the temperature of the solid-liquid transition. The molecule `OCCNc1nc(NCc2ccccc2)c2ncc(Nc3ccc4ncccc4c3)cc2n1` [Compound 90, 4-Benzylamino-2-(2-hydroxyethylamino)-7-(6-quinolinamino)-pyrido[3,2-d]pyrimidine] yielded a melting point of 203 to 204 °C. Moreover, in the data set on Huh7, the IC50 was determined as 2 µM. Besides, half-maximal inhibition in the data set with Caco (IC50) required 4 µM. The IC50 in the data set on MDA-MB 231 came out at 4 µM. This molecule came in with an IC50 with HCT 116 of 1.2 µM. For the same molecule, the IC50 with PC3 was determined as 5 µM. In the data set with NCI, this molecule yielded an IC50 of 2 µM. In addition, in the data set with fibroblast, inhibition was half-maximal at 1.5 µM (IC50).

Take `Oc1ccc(-c2ncc3ncc(-c4ccoc4)cc3n2)cc1` [Compound 36]: the concentration for half-maximal inhibition (IC50) in the data set with Huh7 was > 25 µM; with HCT 116 it was 10 µM; with PC3 it was > 25 µM; in the data set on fibroblast, 20 µM; at DYRK1A, > 10 µM.

Turning to `COc1ccc(Nc2cnc3c(NCc4ccccc4)nc(NCCO)nc3c2)cc1` [Compound 83, 4-Benzylamino-2-(2-hydroxyethylamino)-7-(4-methoxyphenylamino)-pyrido[3,2-d]pyrimidine], the melting point was in the range of 126 to 127 °C. In addition, the IC50 with Huh7 worked out at 5 µM. The molecule further had an IC50 in the data set on Caco of 8 µM. Moreover, 10 µM corresponded to half-maximal inhibition in the data set with MDA-MB 231 (IC50). Also, in the data set with HCT 116, half-maximal inhibition (IC50) required 5 µM. This molecule also came in with an IC50 in the data set with PC3 of 12 µM. This molecule yielded an IC50 in the data set with NCI of 6 µM. Besides, in the data set on fibroblast, the IC50 amounted to 15 µM.

`COc1cccc(Nc2cnc3c(NCc4ccccc4)nc(NCCO)nc3c2)c1` [Compound 84, 4-Benzylamino-2-(2-hydroxyethylamino)-7-(3-methoxyphenylamino)-pyrido[3,2-d]pyrimidine] registered a melting point of 110 to 111 °C. Also, in the data set on Huh7, the IC50 was determined as 3 µM. This molecule also registered an IC50 in the data set on Caco of 4 µM. In the data set on MDA-MB 231, this molecule registered a 50% inhibitory concentration (IC50) of 15 µM. Further, 5 µM corresponded to half-maximal inhibition in the data set on HCT 116 (IC50). In the data set with PC3, the IC50 is 5 µM. Further, in the data set with NCI, the IC50 worked out at 3 µM. This molecule also came in with an IC50 with fibroblast of 5 µM.

For the molecule `OCCNc1nc(NCc2ccccc2)c2ncc(Nc3cnc4ccccc4c3)cc2n1` [Compound 89, 4-Benzylamino-2-(2-hydroxyethylamino)-7-(3-quinolinamino)-pyrido[3,2-d]pyrimidine], the melting point lay within 154 to 155 °C. This molecule displayed a half-maximal inhibitory concentration (IC50) in the data set with Huh7 of 3 µM. In addition, the IC50 with Caco was found to be 2 µM. In the data set with MDA-MB 231, the midpoint of inhibition, the IC50, lay at 3 µM. Moreover, half-maximal inhibition in the data set with HCT 116 (IC50) was put at 0.5 µM. Besides, in the data set with PC3, the IC50 was found to be 3 µM. The molecule also showed an IC50 with NCI of 2 µM. Besides, half-maximal inhibition with fibroblast (IC50) was put at 2 µM.

For `COc1cccc(-c2nc(-c3ccccc3)c3ncc(-c4cccs4)cc3n2)c1` [Compound 15, 2-(3-Methoxyphenyl)-4-phenyl-7-(2-thienyl)-pyrido[3,2-d]pyrimidine], the melting point is 140 to 141 °C.

Consider `OCCNc1nc(NCc2ccccc2)c2ncc(Nc3ncncn3)cc2n1` [Compound 88, 4-Benzylamino-2-(2-hydroxyethylamino)-7-(1,3,5-triazinylamino)-pyrido[3,2-d]pyrimidine], for which the melting point was in the range of 202 to 203 °C.

For `OCCNc1nc(NCc2ccccc2)c2ncc(Nc3ncccn3)cc2n1` [Compound 87, 4-Benzylamino-2-(2-hydroxyethylamino)-7-(2-pyrimidinylamino)-pyrido[3,2-d]pyrimidine], the melting point lay within 141 to 142 °C. The IC50 in the data set with Huh7 came to 7 µM. The molecule further returned an IC50 in the data set with Caco of 8 µM. The same molecule registered an IC50 in the data set with MDA-MB 231 of 15 µM. In the data set with HCT 116, the IC50 was 6 µM. The same molecule returned an IC50 with PC3 of 15 µM. In addition, the IC50 in the data set on NCI was determined as 6 µM. The same molecule came in with an IC50 in the data set on fibroblast of 15 µM.

The molecule `COc1cccc(-c2nc(-c3ccccc3)c3ncc(-c4ccc(C(C)=O)cc4)cc3n2)c1` [Compound 9, 7-(4-Acetylphenyl)-2-(3-methoxyphenyl)-4-phenyl-pyrido[3,2-d]pyrimidine] registered a melting point of 133 to 134 °C.

As to `COCOc1ccc(-c2ncc3ccc(-c4csc(CN5CCOCC5)c4)nc3n2)cc1` [Compound 76, 2-(4-Methoxymethoxy-phenyl)-7-(5-morpholin-4-ylmethyl-thiophen-3-yl)-pyrido[2,3-d]pyrimidine], the melting point was > 268 °C.

On to `COCOc1ccc(-c2ncc3ccc(-c4csc(CN5CCCCC5)c4)nc3n2)cc1` [Compound 75, 2-(4-Methoxymethoxy-phenyl)-7-(5-piperidin-1-ylmethyl-thiophen-3-yl)-pyrido[2,3-d]pyrimidine], for which the melting point is > 268 °C.

`Oc1ccc(Nc2cnc3cnc(-c4ccc(O)cc4)nc3c2)cc1` [Compound 58, 2-(4-Hydroxyphenyl)-7-(4-hydroxyphenylamino)-pyrido[3,2-d]pyrimidine] displayed a melting point of 168 to 170 °C.

In the case of `COCOc1ccc(-c2ncc3ncc(N4CCNCC4=O)cc3n2)cc1` [Compound 67, 1-[2-(4-Methoxymethoxy-phenyl)-pyrido[3,2-d]pyrimidin-7-yl]-piperazin-2-one], the melting point lay within 200 to 202 °C.

With `O=C1CCCCN1c1cnc2cnc(-c3ccc(O)cc3)nc2c1` [Compound 69, 1-[2-(4-Hydroxy-phenyl)-pyrido[3,2-d]pyrimidin-7-yl]-piperidin-2-one], the melting point was 268 to 270 °C.

With `N#Cc1cccc(-c2cnc3cnc(-c4ccc(O)cc4)nc3c2)c1` [Compound 29, 2-(4-Hydroxyphenyl)-7-(3-cyanophenyl)-pyrido[3,2-d]pyrimidine], the melting point was > 268 °C.

As to `Oc1ccc(-c2ncc3ccc(-c4csc(CN5CCOCC5)c4)nc3n2)cc1` [Compound 79, 4-[7-(5-Morpholin-4-ylmethyl-thiophen-3-yl)-pyrido[2,3-d]pyrimidin-2-yl]-phenol], the melting point is > 268 °C.

Values taken from patent US20130109693A1, “DERIVATIVES OF PYRIDO [3,2-D] PYRIMIDINE, METHODS FOR PREPARATION THEREOF AND THERAPEUTIC USES THEREOF” (UNIVERSITE D'ORLEANS, priority 2010, published 2013).
